Data: the NIST ThermoML archive (doi:10.1021/je700580g)

Experiments:
[1] = 101.33 kPa, Liquid
[2] = refractive index (Na D-line) (dimensionless); details: 101.33 kPa, Liquid, Standard Abbe refractometry
[3] = xn = mol fraction of the nth substance listed; details: 101 kPa, Liquid

OCCO [1,2-ethanediol]
Details | mass density, 293.15 K [kg/m3] | mass density, 303.15 K [kg/m3] | mass density, 313.15 K [kg/m3] | refractive index, 293.15 K | refractive index, 298.15 K
[1] | 1113.37 | 1106.4 | 1099.35 | – | –
[2] | – | – | – | 1.4323 | 1.4309

OCCO [1,2-ethanediol] + CCCCO
mass density [kg/m3], [3]
Details | x1 = 0.08923 | x1 = 0.249 | x1 = 0.3206 | x1 = 0.4019 | x1 = 0.5347 | x1 = 0.6571 | x1 = 0.6974 | x1 = 0.7753 | x1 = 0.81 | x1 = 0.9121
293.15 K | 826.85 | 861.02 | 878.11 | 898.74 | 936.02 | 975.06 | 989.14 | 1017.69 | 1030.76 | 1073.19
298.15 K | 823.02 | 857.21 | 874.25 | 894.96 | 932.22 | 971.34 | 985.27 | 1013.86 | 1027.06 | 1069.67
303.15 K | 819.29 | 853.42 | 870.64 | 891.24 | 928.63 | 967.77 | 981.88 | 1010.51 | 1023.76 | 1066.15
308.15 K | 815.49 | 849.65 | 866.86 | 887.45 | 924.91 | 964.18 | 978.14 | 1006.95 | 1020.29 | 1062.56
313.15 K | 811.51 | 845.69 | 862.94 | 883.57 | 921.05 | 960.49 | 974.54 | 1003.28 | 1016.76 | 1059.01

CCCCO [butan-1-ol]
Details | mass density, 293.15 K [kg/m3] | mass density, 298.15 K [kg/m3] | mass density, 303.15 K [kg/m3] | mass density, 308.15 K [kg/m3] | mass density, 313.15 K [kg/m3] | refractive index, 293.15 K | refractive index, 298.15 K
[1] | 809.6 | 805.84 | 802.04 | 798.2 | 794.31 | – | –
[2] | – | – | – | – | – | 1.3997 | 1.3978

CCCCCCO [hexan-1-ol]
Details | mass density, 293.15 K [kg/m3] | mass density, 298.15 K [kg/m3] | mass density, 303.15 K [kg/m3] | mass density, 308.15 K [kg/m3] | mass density, 313.15 K [kg/m3] | refractive index, 293.15 K | refractive index, 298.15 K
[1] | 818.74 | 815.28 | 811.71 | 808.13 | 804.53 | – | –
[2] | – | – | – | – | – | 1.4183 | 1.4161

CCCCCCO [hexan-1-ol] + OCCO
mass density [kg/m3], [3]
Details | x2 = 0.08275 | x2 = 0.1585 | x2 = 0.2374 | x2 = 0.3265 | x2 = 0.4905 | x2 = 0.5445 | x2 = 0.5965 | x2 = 0.6932 | x2 = 0.7757 | x2 = 0.9053
293.15 K | 829.72 | 840.78 | 853.56 | 869.87 | 905.8 | 919.79 | 934.39 | 965.41 | 996.6 | 1057.08
298.15 K | 826.21 | 837.17 | 849.99 | 866.29 | 902.2 | 916.19 | 930.83 | 961.84 | 993.11 | 1053.67
303.15 K | 822.63 | 833.58 | 846.39 | 862.69 | 898.58 | 912.56 | 927.24 | 958.23 | 989.49 | 1050.1
308.15 K | 819.02 | 829.96 | 842.67 | 859.01 | 894.88 | 908.9 | 923.53 | 954.54 | 985.79 | 1046.52
313.15 K | 815.44 | 826.33 | 839.04 | 855.36 | 891.27 | 905.23 | 919.95 | 950.95 | 982.18 | 1042.98

CCCCCCCCO [octan-1-ol]
Details | mass density, 293.15 K [kg/m3] | mass density, 298.15 K [kg/m3] | mass density, 303.15 K [kg/m3] | mass density, 308.15 K [kg/m3] | mass density, 313.15 K [kg/m3] | refractive index, 293.15 K | refractive index, 298.15 K
[1] | 825.12 | 821.75 | 818.31 | 814.8 | 811.41 | – | –
[2] | – | – | – | – | – | 1.4298 | 1.428

CCCCCCCCO [octan-1-ol] + OCCO
mass density [kg/m3], [3]
Details | x2 = 0.07997 | x2 = 0.159 | x2 = 0.2159 | x2 = 0.36 | x2 = 0.4825 | x2 = 0.5912 | x2 = 0.6299 | x2 = 0.7437 | x2 = 0.8063 | x2 = 0.8892
293.15 K | 833.01 | 842 | 849.21 | 870.86 | 894.13 | 920.03 | 930.8 | 968.64 | 994.57 | 1036.57
298.15 K | 829.64 | 838.63 | 845.74 | 867.38 | 890.64 | 916.52 | 927.19 | 965.11 | 991.03 | 1033.02
303.15 K | 826.15 | 835.13 | 842.24 | 863.92 | 887.11 | 912.94 | 923.7 | 961.5 | 987.45 | 1029.52
308.15 K | 822.68 | 831.61 | 838.76 | 860.33 | 883.47 | 909.33 | 920.08 | 957.92 | 983.8 | 1025.99
313.15 K | 819.15 | 828.07 | 835.18 | 856.83 | 879.91 | 905.71 | 916.5 | 954.32 | 980.25 | 1022.37
